{
  "source": "patent US20190021976A1",
  "about": "“COMPOSITION FOR PREVENTING, IMPROVING OR TREATING PHOTOAGING OF SKIN COMPRISING DHPV” (SUNGKWANG MEDICAL FOUNDATION, priority 2016, published 2019)",
  "key": {"IVL (involucrin)": {"system": "IVL (involucrin)", "experiment": "Western blot of IVL (involucrin) expression in UV-irradiated human skin cells", "assay_type": "cell-based", "method": "(§1) First, aging was induced by irradiation with 0.1 J/cm^2 UV on human skin cells (hypodermis and epidermis were separated using HaCaT cell line purchased from ATCC and human body derived Foreskin, and primary cell culture was used). Next, DHPV, a metabolite of cacao, prepared in 1-1 was treated 0.5, 1 nM, respectively, and cells were obtained.\nThe expression level of IVL (involucrin) which is one of aging markers of epidermal cells was confirmed by Western blot. Cells were degraded using cell dissolution buffer containing protease inhibitor cocktail kit (P3100-005; GenDEPOT, Barker, Tex.), and phosphatase inhibitor (sc-45065; Santa Cruz Biotechnology, Santa Cruz, Calif.) (#9803; Cell SignalingTechnology, Danvers, Mass.). The aliquot containing 25 ug of cell lysates was separated by electrophoresis on SDS-polyacrylamide gel, and then transferred to nitrocellulose membrane (Amersham, Buckinghamshire, UK) for 180 min at 75 V and […] on a transfer buffer (25 mM Tris, 192 mM glycine, 20% [v/v] methanol [pH 8.3]). The membrane was blocked with PBS of 3% (w/v) BSA containing 0.1% (v/v) Tween-20 for 60 min, and then cultured with anti-involucrin (Santacruz, sc28557) antibody. HRP-combined goat anti-rabbit IgG (1:1000; sc 2004, SantaCruz) was used as a secondary antibody. ECL lumi Femto solution A/B (Dogen, Seoul, Korea) was used to develop blots."}, "PFN1": {"system": "PFN1", "experiment": "Western blot of PFN1 expression in UV-irradiated human skin cells", "assay_type": "cell-based", "details": "0.1 J/cm^2 UV, DHPV 0.5, 1 nM, FIG. 2", "method": "as §1\nThe expression level of PFN1 as a novel aging marker of epidermal cells was confirmed with Western blot by the same method as the above method except using anti-PFN1 (Abcam, ab118984) antibody instead of anti-involucrin (Santacruz, sc28557) antibody and HRP-combined goat anti-mouse IgG (1:3000; sc 2005, SantaCruz) instead of HRP-combined goat anti-rabbit IgG (1:1000; sc 2004, SantaCruz)."}, "MMP-1": {"system": "MMP-1", "experiment": "MMP-1 real time PCR in UVB-irradiated human derived hypodermis fibroblasts", "assay_type": "cell-based", "details": "medium containing DHPV for 24 hrs, FIG. 3A", "method": "(§2) First, human derived hypodermis fibroblasts (hypodermis and epidermis were separated using human body derived Foreskin and the primary cell culture was used) were cultured in the DMEM medium containing 10% FBS (fetal bovine serum), and then cultured in serum free media for 24 hrs and UVB was irradiated. Next, cells were cultured in a medium containing serum or a medium containing 1-41M DHPV for 24 hrs, thereby collecting cells.\nIn order to confirm changes of mRNA expression level of MMP-1, mRNA was obtained using RNAiso Plus (Takara Bio Inc., Shiga, Japan). Next, CDNA was synthesized and prepared using PrimeScript™ 1st Plus (Takara Bio Inc., Shiga, Japan), and real time PCR was conducted using IQ SYBR (Bio-Rad Laboratories). The primer sequences used in conducting PCR were as same as the following Table 1."}, "AP-1": {"system": "AP-1", "experiment": "AP-1 luciferase reporter gene assay in UVB-irradiated hypodermis fibroblasts", "assay_type": "cell-based, human", "details": "DHPV treatment, FIG. 3B", "method": "as §2\nAP-1 was obtained by inoculating pGF-AP1-mCMV-EF1-Puro vector (System Biosciences, CA) and a package vector, pMD2.0G and psPAX (Addgene Inc, Cambridge, Mass.) to HEK293T cell and in 36 hrs, viral particles were obtained using […] injection filter, in order to measure activity changes by UVB irradiation through luciferase reporter gene assay. Next, it was inoculated to hypodermis fibroblasts, and cells that injection with puromycin (Sigma, MO, […]) was successes were obtained. Then the activity of AP-1 was measured by using luciferase assay kit (Promega, Madison, Wis.) after culturing cells in the same manner with the hypodermal fibroblast culturing method and treating with DHPV."}, "[1]": {"system": "Involucrin (IVL) DNA promoter region", "experiment": "Methylation specific PCR of IVL promoter in UV-irradiated human skin cells", "assay_type": "cell-based", "details": "FIG. 4", "text": "The aging was induced by irradiation with 0.1 J/cm^2 UV on human skin cells (hypodermis and epidermis were separated using HaCaT cell line purchased from ATCC and human body derived Foreskin, and primary cell culture was used). DNA of the cells was extracted using NucleoSin® Tissue Kit (Macherey-Nagel, Düren, Germany). The extracted DNA was quantified using Nano Drop and its quality was confirmed. In the extracted DNA, unmethylated Cytosine residues were converted to Uracil residues by treating Bisulfite using EZ DNA Methylation-Lightning™ Kit (Zymoresearch, CA, USA) for methylation analysis.\nDistilled water was added to Bisulfited DNA 100 ng, primer pair (20 pmole) respectively, 1 uL, TaKaRa EpiTaq HS (5 U/μl) 0.25 uL, 10× EpiTaq PCR Buffer (Mg2^+ free) 5 uL, 25 mM MgCl2 5 uL, dNTP Mixture (2.5 mM each) 6 uL to be 50 uL of the final volume, and then after reacting for […] at 98° C., the procedure of 10 sec at 98° C., 1 min at 55° C., and 30 sec at 72° C. as 40 cycles was repeated and reacted. Then, after extending for 5 min at 72° C., the result was analyzed in 2% (w/v) agarose gel.\nMethylation of IVL promoter by DHPV and relative methylation tendency were analyzed by methylation specific PCR which can relatively compare methylation or non-methylation of genes according to band intensity on the electrophoresis. […]"}, "[2]": {"system": "HaCaP cell line and hypodermal cells isolated from human derived foreskin", "experiment": "Biostability: cell viability (Ez-cytox)", "assay_type": "cell-based", "details": "FIG. 5", "method": "In order to evaluate DHPV biostability, HaCaP cell line and hypodermal cells isolated from human derived foreskin were inoculated (2×10^4 cell each) and cultured on the 24 well plate and stabilized. Then, the cells were cultured in serum free media for 24 hrs and 48 hrs."}},
  "data": [
    {"smiles": "O=C1CCC(Cc2ccc(O)c(O)c2)O1", "note": "(centres unmarked) [DHPV, 5-(3′,4′-Dihydroxyphenyl)-Γ-valerolactone]", "values": [
      {"measurement": "concentration exhibiting excellent skin aging-preventing function", "setting": "IVL (involucrin); based on skin cells", "value": 1, "unit": "nM"},
      {"measurement": "expression level of the IVL marker (amount of UV-increased IVL)", "setting": "IVL (involucrin); human skin cells, 0.1 J/cm^2 UV, DHPV 0.5, 1 nM, FIG. 2", "value": "reduced in a concentration-dependent manner"},
      {"measurement": "expression level of the PFN1 marker", "setting": "PFN1", "value": "increased in a concentration-dependent manner"},
      {"measurement": "mRNA expression of MMP-1", "setting": "MMP-1", "value": "recovered similarly to the control group"},
      {"measurement": "activity of AP-1", "setting": "AP-1", "value": "recovered similarly to the control group"},
      {"measurement": "methylation of Involucrin (IVL) DNA promoter region induced by photoaging", "setting": "[1]; 0.1 J/cm^2 UV, methylation specific PCR", "value": "inhibited methylation"},
      {"measurement": "intensity of methylation band", "setting": "[1]; UV treated cells when treating DHPV, electrophoresis", "value": "decreased"},
      {"measurement": "biostability (cell viability)", "setting": "[2]", "value": "shown similarly to that of control group"}
    ]}
  ]
}
